Experimental findings from US20230364079A1, “COMPOUND AS BRAIN-PERMEABLE BTK OR HER2 INHIBITOR, PREPARATION METHOD THEREFOR, AND USE THEREOF” (CHENGDU HYPERWAY PHARMACEUTICALS CO., LTD., priority 2020, published 2023) are described below.

Molecules are shown by their SMILES. pIC50: −log10 of the molar value.

Chain of BTK wild-type kinase (Q06187 whole entry): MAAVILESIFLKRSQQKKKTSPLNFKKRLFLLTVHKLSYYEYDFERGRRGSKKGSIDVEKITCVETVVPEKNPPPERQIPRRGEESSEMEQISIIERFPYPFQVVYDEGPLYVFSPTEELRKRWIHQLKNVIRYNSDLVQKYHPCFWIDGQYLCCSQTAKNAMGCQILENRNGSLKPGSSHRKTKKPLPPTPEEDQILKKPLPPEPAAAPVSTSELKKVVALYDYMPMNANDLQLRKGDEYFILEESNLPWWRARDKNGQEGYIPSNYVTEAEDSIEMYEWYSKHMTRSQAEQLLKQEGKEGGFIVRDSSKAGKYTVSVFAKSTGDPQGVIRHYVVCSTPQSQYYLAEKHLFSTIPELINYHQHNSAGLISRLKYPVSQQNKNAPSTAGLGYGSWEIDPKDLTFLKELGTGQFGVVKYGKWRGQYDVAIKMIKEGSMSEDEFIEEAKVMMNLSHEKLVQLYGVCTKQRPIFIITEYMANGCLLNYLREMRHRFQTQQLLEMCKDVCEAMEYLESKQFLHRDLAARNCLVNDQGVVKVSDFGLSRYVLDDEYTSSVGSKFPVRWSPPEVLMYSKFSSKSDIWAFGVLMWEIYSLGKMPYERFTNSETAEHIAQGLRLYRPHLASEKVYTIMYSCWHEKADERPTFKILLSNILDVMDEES

The first series concerns the target BTK wild-type kinase (Homo sapiens (Human), UniProt Q06187). Kind of series: BTK kinase activity inhibition test in vitro (Caliper EZ Reader). The format is biochemical.
Conditions: not given
As to the method:
In the tests on the activity of inhibiting BTK and HER2 kinase in vitro in the examples of the present disclosure, powder of the compound was dissolved in 100% DMSO to prepare a 10 mM stock solution and stored at-20° C. in the dark. […] In addition, the compounds were subjected to experiments such as liver microsome metabolic stability, rat PK, rat brain penetration rate, and drug efficacy model in the examples of the present disclosure.
Compound powders were dissolved in 100% DMSO to make 10 mM stock solutions, which were stored at -20° C. in the dark.
2: Kinase Reaction Process
(1) Preparation of 1 × Kinase buffer.
(5) After centrifugation at 1000 rpm for 30 seconds, the reaction plate was shaken to mix well and incubated at room temperature for 10 min.
(6) A 5/3-fold final concentration of a mixed solution of ATP and Kinase substrate 2 was prepared with 1 × Kinase buffer.
(7) 15 µL of the mixed solution of ATP and substrate with 5/3-fold final concentration was added to start the reaction.
(8) The 384-well plate was centrifuged at 1000 rpm for 30 seconds, shaken to mix well, and incubated at room temperature for 10 min.
(9) 30 µL of a stop solution was added to stop the kinase reaction, and after centrifugation at 1000 rpm for 30 seconds, the plate was shaken to mix well;
(10) The conversion rate was read with Caliper EZ Reader.
where Conversion%_sample indicates the conversion rate reading of the sample; Conversion%_min is the average reading of the negative control wells, representing the conversion rate reading of the wells without enzyme activity; Conversion%_max is the average reading of the ratio of the positive control wells, representing the conversion rate reading of the wells without compound inhibition.
Dose-Response Curve Fitting
With the log value of the concentration as the X-axis, and the percentage inhibition rate as the Y-axis, the dose-effect curve was fitted using the log(inhibitor) vs. response-Variable slope of the analysis software GraphPad Prism 5, so as to determine the IC50 value of each compound on the enzyme activity.
The calculation formula was: […]
A word on the pIC50: it is −log10 of the IC50, conventionally taken in molar units. A high value points to a small IC50. The compound `COc1ccccc1C(=O)NCc1ccc(-c2nn(C3CCC(CO)OC3)c3ncnc(N)c23)cc1` (single isomer, unassigned) [Compound 60-B] showed a pIC50 of 7.00 to 7.70.
Compound `Nc1nccn2c(C3CCC(CO)OC3)nc(-c3ccc(C(=O)Nc4ccccc4F)cc3)c12` (stereo not drawn) [Compound 133] showed a pIC50 of 6.00 to 7.00.
`COc1cccc(Oc2ccc(-c3nc(C4CCC(CO)OC4)n4ccnc(N)c34)cc2)c1C#N` (single isomer, unassigned) [Compound 89-P2] gave a pIC50 greater than 8.30.
Turning to `COc1cccc(Oc2ccc(-c3nc(C4CCC(CO)OC4)n4c(Cl)cnc(N)c34)cc2)c1C#N` (stereo not drawn) [Compound 100], the pIC50 was greater than 8.30.
Still for that read-out and setting: under `Cc1cc(NC(=O)c2ccc(C3CC3)cc2F)c(F)cc1-c1nc(C2CCC(CO)OC2)n2ccnc(N)c12` (stereo not drawn) [Compound 31] stands less than 6.00; under `Cc1ccc(Oc2ccc(-c3nc(C4CCC(CO)OC4)n4ccnc(N)c34)cc2)cc1` (stereo not drawn) [Compound 78], 7.00 to 7.70.
`Nc1nccn2c(C3CCC(CO)OC3)nc(-c3ccc(Oc4cccc(C5CC5)c4F)cc3)c12` (stereo not drawn) [Compound 22] showed a pIC50 of 7.00 to 7.70.
On the same count and under the same terms, the value for `Nc1nccn2c(C3CCC(CO)OC3)nc(-c3cnc(Nc4cccc(OC(F)(F)F)c4)nc3)c12` (stereo not drawn) [Compound 56] was less than 6.00.
On to `Nc1nccn2c(C3CCC(CO)OC3)nc(-c3ccc(C(=O)c4ccccc4Cl)cc3)c12` (stereo not drawn) [Compound 62], for which the pIC50 is 7.00 to 7.70.
Same read-out and setting: under `Nc1nccn2c(C3CCC(CO)OC3)nc(-c3ccc(C(=O)Nc4cc(C(F)(F)F)ccn4)cc3)c12` (single isomer, unassigned) [Compound 109-P2] stands greater than 8.30; under `COc1cccc(Oc2ccc(-c3nc(C4CCC(C(C)(C)O)OC4)n4ccnc(N)c34)cc2)c1F` (stereo not drawn) [Compound 51], 7.00 to 7.70; under `COc1cccc(Oc2ccc(-c3nc(C4CCC(CO)OC4)n4ccnc(N)c34)c(F)c2)c1C#N` (stereo not drawn) [Compound 98], greater than 8.30.
On the same count and under the same terms, under `Nc1ncnc2c1c(-c1ccc(C(=O)Nc3ccccn3)cc1)nn2C1CCC(CO)OC1` (stereo not drawn) [Compound 108] stands 7.70 to 8.30; under `Nc1ncnc2c1c(-c1ccc(Oc3ccccc3)cc1)nn2C1CCC(CO)OC1` (stereo not drawn) [Compound 53], 7.00 to 7.70.
Same read-out and setting: under `Nc1nccn2c(C3CCC(CO)OC3)nc(-c3ccc(C(=O)Nc4cc(C(F)(F)F)ccn4)cc3F)c12` (stereo not drawn) [Compound 105] stands greater than 8.30.
Compound `CC(C)(c1ccccc1)c1ccc(-c2nc(C3CCC(CO)OC3)n3ccnc(N)c23)cc1` (stereo not drawn) [Compound 131] showed a pIC50 of less than 6.00.
In turn, `COc1cccc(Oc2ccc(-c3nc(C4CCC(C5(O)CC5)OC4)n4ccnc(N)c34)cc2)c1F` (stereo not drawn) [Compound 50] had a pIC50 of 7.00 to 7.70.
Compound `COc1cccc(Oc2ccc(-c3nn(C4CCC(CO)OC4)c4ncnc(N)c34)cc2)c1F` (stereo not drawn) [Compound 29] showed a pIC50 of 7.70 to 8.30.
In turn, `Nc1nccn2c(C3CCC(CO)OC3)nc(-c3ccc(Oc4cccc(OCC5CC5)c4F)cc3)c12` (stereo not drawn) [Compound 23] showed a pIC50 of 6.00 to 7.00.
Same read-out and setting: under `Nc1nccn2c(C3CCC(CO)OC3)nc(-c3ccc(C(F)(F)c4ccccc4)cc3F)c12` (stereo not drawn) [Compound 113] stands 7.70 to 8.30; under `COc1cc(Oc2ccc(-c3nc(C4CCC(CO)OC4)n4ccnc(N)c34)cc2)ccc1F` (stereo not drawn) [Compound 21], 7.00 to 7.70.
`Nc1nccn2c(C3CCC(CO)OC3)nc(-c3ccc(C(=O)c4ccc(Cl)cc4)cc3)c12` (stereo not drawn) [Compound 102] showed a pIC50 of 7.00 to 7.70.
On the same count and under the same terms, the value for `Nc1ncc(Cl)n2c(C34CCC(CO)(CC3)OC4)nc(-c3ccc(C(=O)Nc4ccccn4)cc3F)c12` [Compound 36] was 7.70 to 8.30; that for `COc1cccc(C(F)(F)c2ccc(-c3nc(C45CCC(CO)(CC4)OC5)n4ccnc(N)c34)cc2)c1` [Compound 132] was 7.00 to 7.70; that for `Nc1nccn2c(C34CCC(CO)(CC3)OC4)nc(-c3ccc(C(=O)Nc4cc(C(F)(F)F)ccn4)cc3F)c12` [Compound 117] was greater than 8.30.
For the compound `Nc1nccn2c(C34CCC(CO)(CC3)OC4)nc(-c3ccc(C(=O)Nc4ccccn4)cc3F)c12` [Compound 35], the pIC50 was 7.70 to 8.30.
Still for that read-out and setting: under `Nc1nccn2c(C3CCC(CO)OC3)nc(-c3ccc(C(=O)Nc4nccc(C(F)(F)F)c4F)cc3)c12` (stereo not drawn) [Compound 86] stands 6.00 to 7.00; under `Nc1nccn2c(C34CCC(CO)(CC3)OC4)nc(-c3ccc(C(F)(F)c4cccc(F)c4F)cc3)c12` [Compound 130], 7.70 to 8.30.
`Nc1nccn2c(C3COC4C(O)COC34)nc(-c3ccc(C(=O)Nc4ccccn4)cc3)c12` (stereo not drawn) [Compound 83] gave a pIC50 of 6.00 to 7.00.
As to `Nc1nccn2c(C34COC(CO)(C3)C4)nc(-c3ccc(C(=O)Nc4ccccn4)cc3F)c12` [Compound 43], the pIC50 is 7.00 to 7.70.
`COc1cccc(Oc2ccc(-c3nc(C45CCC(CO)(CC4)OC5)n4ccnc(N)c34)c(F)c2)c1F` [Compound 38]: the pIC50 is 7.70 to 8.30.
Compound `Nc1nccn2c(C3CCC(CO)OC3)nc(-c3ccc(C(=O)Nc4ncccc4F)cc3)c12` (stereo not drawn) [Compound 87] had a pIC50 of 6.00 to 7.00.
In turn, `Nc1nccn2c(C3CCC(CO)OC3)nc(-c3ccc(C(O)c4ccccc4Cl)cc3)c12` (stereo not drawn) [Compound 63] gave a pIC50 of 6.00 to 7.00.
On the same count and under the same terms, under `COc1ccc(C#N)c(Oc2ccc(-c3nc(C4CCC(CO)OC4)n4ccnc(N)c34)cc2)c1` (stereo not drawn) [Compound 96] stands 7.00 to 7.70; under `COCCOc1ccc(-c2nc(C3CCC(CO)OC3)n3ccnc(N)c23)cc1` (stereo not drawn) [Compound 74], less than 6.00.
Turning to `COc1cccc(C(F)(F)c2ccc(-c3nc(C4CCC(CO)OC4)n4ccnc(N)c34)cc2)c1C#N` (stereo not drawn) [Compound 123], the pIC50 was 7.00 to 7.70.
Same read-out and setting: under `Nc1ncc(Cl)n2c(C3CCC(CO)OC3)nc(-c3ccc(C(=O)Nc4cc(C(F)(F)F)ccn4)cc3)c12` (stereo not drawn) [Compound 110] stands greater than 8.30; under `Nc1nccn2c(C34CCC(CO)(CC3)OC4)nc(-c3ccc(Oc4cccc(C(F)(F)F)c4F)cc3)c12` [Compound 93], 7.70 to 8.30.
Same read-out and setting: under `COc1cccc(Oc2ccc(-c3nc(C4CCC(CO)OC4)n4ccncc34)cc2)c1F` (stereo not drawn) [Compound 90] stands 7.00 to 7.70.
Still for that read-out and setting: the value for `COc1cccc(Oc2ccc(-c3nc(C45CCC(CO)(CC4)OC5)n4c(Cl)cnc(N)c34)cc2)c1F` [Compound 39] was greater than 8.30; that for `Nc1ncc(Cl)n2c(C34COC(CO)(C3)C4)nc(-c3ccc(Oc4cccc(OC(F)(F)F)c4F)cc3F)c12` [Compound 41] was 7.70 to 8.30.
`Nc1nccc2c1c(-c1ccc(C(=O)Nc3ccccn3)cc1F)nn2C1CCC(CO)OC1` (stereo not drawn) [Compound 57]: the pIC50 was 7.00 to 7.70.
`Nc1nccn2c(C3CCC(CO)OC3)nc(-c3ccc(C(=O)Nc4ccc(F)cn4)cc3)c12` (stereo not drawn) [Compound 69] showed a pIC50 of 7.00 to 7.70.
On the same count and under the same terms, the value for `Nc1nccn2c(C3CCC(CO)OC3)nc(-c3ccc(OCc4ccccc4)cc3)c12` (stereo not drawn) [Compound 55] was 7.00 to 7.70; that for `COc1cccc(Oc2ccc(-c3nc(C45COC(CO)(C4)C5)n4ccnc(N)c34)cc2)c1F` [Compound 45] was 7.70 to 8.30.
Same read-out and setting: under `Nc1nccn2c(C34CCC(CO)(CC3)OC4)nc(-c3ccc(C(F)(F)c4ccc(F)cc4)cc3)c12` [Compound 141] stands 6.00 to 7.00.
Same read-out and setting: the value for `CC(O)(c1ccccc1)c1ccc(-c2nc(C3CCC(CO)OC3)n3ccnc(N)c23)cc1` (stereo not drawn) [Compound 27] was 7.00 to 7.70.
The compound `Nc1ncnc2c1c(-c1ccc(Oc3ccccc3)cc1F)nn2C1CCC(CO)OC1` (stereo not drawn) [Compound 54] had a pIC50 of 7.00 to 7.70.
Take `Nc1nccn2c(C34CCC(CO)(CC3)OC4)nc(-c3ccc(C(F)(F)c4cccc(C5CC5)c4)cc3)c12` [Compound 143]: the pIC50 was 7.00 to 7.70.
Same read-out and setting: the value for `Nc1nccn2c(C3CCC(CO)OC3)nc(-c3ccc(Oc4ccccc4)cc3Cl)c12` (stereo not drawn) [Compound 32] was 7.70 to 8.30; that for `COc1cccc(Oc2ccc(-c3nn(C4CCC(CO)OC4)c4ccnc(N)c34)cc2)c1F` (stereo not drawn) [Compound 30] was 7.70 to 8.30.

Tested on in another series: not listed separately
Kind of series: Pharmacokinetic test, oral, SD rats. The following applies: oral 10 mg/kg, plasma. In kind it is in vivo. As to the method: Each test compound was administered orally (10 mg/kg, 3 rats in each group) to SD rats for pharmacokinetic study. […] Animals were fasted overnight before oral administration, and fed again after 4 h of administration. […] At each collection time point, 3 whole blood samples were collected at a the collection volume of about 0.2-0.3 mL. […] The collected plasma was stored at -20° C. before analysis. 20 µL of plasma sample was added into a 1.6 mL 96-well deep-well plate, added with 200 µL of working internal standard solution (the same volume of vehicle was added to the blank instead of internal standard), vortexed for 1 min, and centrifuged at 5800 rpm for 10 min. 100 µL of the supernatant was added to a 96-well injection plate for LC-MS/MS analysis.
Consider `COc1ccccc1C(=O)NCc1ccc(-c2nn(C3CCC(CO)OC3)c3ncnc(N)c23)cc1` (single isomer, unassigned) [Compound 60-B], for which the “Cl” value amounted to 188.82 mL/min/kg.

The series is the same for the next values; noted with them: rat, oral 10 mg/kg, plasma.
For orientation: AUC(0-inf) means the area under the concentration-time curve extrapolated to infinity. The compound `C=CC(=O)N1CCC[C@@H](n2nc(-c3ccc(Oc4ccccc4)cc3)c3c(N)ncnc32)C1` [Ibrutinib, reference compound] had an AUC(0-inf) of 362 ng·h/mL.
On to `COc1ccccc1C(=O)NCc1ccc(-c2nn(C3CCC(CO)OC3)c3ncnc(N)c23)cc1` (single isomer, unassigned) [Compound 60-B], for which the AUC(0-inf) was determined as 889 ng·h/mL.

The same series, now with this note: rat, oral 10 mg/kg, plasma, read-out: Cmax.
As usually defined, the Cmax is the highest concentration seen after dosing. For `C=CC(=O)N1CCC[C@@H](n2nc(-c3ccc(Oc4ccccc4)cc3)c3c(N)ncnc32)C1` [Ibrutinib, reference compound], the highest concentration (Cmax) was found to be 222 ng/mL.
Same read-out and setting: the value for `COc1ccccc1C(=O)NCc1ccc(-c2nn(C3CCC(CO)OC3)c3ncnc(N)c23)cc1` (single isomer, unassigned) [Compound 60-B] was 946 ng/mL.

Still in this series, the particulars now being: rat, oral 10 mg/kg, plasma, read-out: T½ (converted).
As to `COc1ccccc1C(=O)NCc1ccc(-c2nn(C3CCC(CO)OC3)c3ncnc(N)c23)cc1` (single isomer, unassigned) [Compound 60-B], the half-life was 2.89 h.
